Measurements from patent US20260000655A1, “PHARMACEUTICAL COMPOSITION FOR USE IN PREVENTION OR TREATMENT OF LIFESTYLE-RELATED DISEASE” (priority 2022, published 2026).

Legend:
[1] = test system: high-fat diet-induced obesity model mice; experiment: Glucose loading test in mouse; assay type: in vivo; conditions: HPH-15 10 mg/kg or 100 mg/kg orally, 28 days; glucose 0.5 g/kg intraperitoneally; compared to olive oil
Protocol: The effect of HPH-15 on the change in blood glucose levels in the presence of glucose was examined using mice.
High-fat diet-induced obesity model mice were prepared in the same manner as in Example 7. Then, HPH-15 (10 mg/kg or 100 mg/kg, […]) dissolved in olive oil or metformin (300 mg/kg, […]) was orally administered once a day for 28 days. Olive oil alone was administered as a control. After 28 days of administration of each, glucose was intraperitoneally administered (0.5 g/kg) to the high-fat diet-induced obesity model mice, and blood glucose levels (mg/dl) were measured at 0, 15, 30, 60, 90, and 120 minutes after administration using a blood glucose meter Glutest Aqua (Sanwa Kagaku Kenkyusho Co., Ltd.).

[2] = test system: adenosine monophosphate-activated protein kinase (AMPK); experiment: Activation of AMPK (p-AMPK/AMPK, Western blotting) in liver cell model HepG2; assay type: cell-based, human; conditions: HPH-15 at 1/40th the concentration of metformin (2 mM), 24 hours
Text: The tissues involved in glucose uptake and glucose metabolism are mainly the muscle, the liver, and the fat. Thus, using a cell model of each tissue, the relationship between HPH-15 and activation of adenosine monophosphate-activated protein kinase (AMPK) was examined. Note that AMPK is known as a therapeutic target for diabetes. AMPK acts as an energy sensor, and when it detects a decrease in ATP serving as an intracellular energy source, it suppresses the synthesis of glucose, fats, and proteins and produces ATP. Exercise therapy for diabetes is based on this mechanism. Further, AMPK has been drawing attention as a factor that improves insulin resistance.
As a muscle cell model to be used, rat myoblast cell line L6-GLUT4myc (myoblasts expressing myc-tagged GLUT4) was cultured in a minimal essential medium a-MEM (10% FBS) and differentiated into myotubes. Differentiation into myotubes was performed by culturing L6-GLUT4 cells in a-MEM (10% FBS) and then changing the medium to a-MEM (2% FBS), followed by culturing for 6 days. Human HepG2 cell line was used as a liver cell model. As an adipocyte model to be used, mouse 3T3-L1 preadipocyte cell line was differentiated into adipocytes. Differentiation into adipocytes was performed as follows. […]
Next, bands of AMPK and p-AMPK were quantified using ImageJ to determine a ratio of activated AMPK relative to AMPK (p-AMPK/AMPK).

[3] = test system: myotube cell model L6-GLUT4myc, liver cell model HepG2 cells, adipocyte model 3T3-L1; experiment: Production of lactic acid in cells; assay type: cell-based, rat, human, mouse; conditions: HPH-15 10 μM or 50 μM vs metformin 2 mM; 24 hours
Protocol: There is a concern that a therapeutic drug of diabetes may cause lactic acidosis due to the production of lactic acid, requiring caution, especially for patients with chronic renal failure or the elderly. Therefore, the production of lactic acid when HPH-15 was used was examined.
The myotube cell model L6-GLUT4myc, the liver cell model HepG2 cells, and the adipocyte model 3T3-L1 used in Example 1 were each seeded onto a 24-well plate (1×10^5 cells/well, […] of culture liquid) and cultured overnight. Then, a DMSO solution (1%) containing HPH-15 (final concentration: 10 μM or 50 μM) or metformin (final concentration: 2 mM) was added to the medium, and the cells were further cultured for 24 hours. As a control, only DMSO solution (1%) was added, and the cells were cultured for 24 hours in the same manner. Next, the amount of lactic acid accumulated in the cells was measured using the Lactate Assay Kit-WST (Dojindo Laboratories).

[4] = test system: high-fat diet-induced obesity model mice; experiment: Blood glucose lowering effect in mouse; assay type: in vivo; conditions: HPH-15 10 mg/kg or 100 mg/kg orally once a day for 28 days, compared with metformin 300 mg/kg
Protocol: In Example 7, mice were used instead of the cells, which were used up to Example 6, to examine the blood glucose lowering effect of HPH-15.
Four-week-old […] mice (CLEA Japan, Inc.) were fed a high-fat diet HFD (CLEA Japan, Inc.) for two months to prepare high-fat diet-induced obesity model mice. Then, HPH-15 (10 mg/kg or 100 mg/kg, […]) dissolved in olive oil (Kenei Pharmaceutical Co., Ltd.) or metformin (300 mg/kg, […]) was orally administered once a day for 28 days. Olive oil alone was administered as a control. Body weight, random blood glucose levels, and fasting blood glucose levels were measured every 7 days using a blood glucose meter Glutest Aqua (Sanwa Kagaku Kenkyusho Co., Ltd.). Fasting blood glucose levels were measured after 12-hour fasting. Note that, during the drug administration period, the mice were fed the high-fat diet HFD. The results of random blood glucose levels (mg/dl) are shown in FIG. 7A, and the results of fasting blood glucose levels (mg/dl) are shown in FIG. 7B.

How did the “glucose metabolism (blood glucose levels, IAUC) after glucose loading” value [1] turn out when `CC(C)(C)SCCNC(=S)c1cccc(C(=S)NCCSC(C)(C)C)n1` [HPH-15] was run?
Its value is “significantly improved”.

And the “AMPK activation (p-AMPK/AMPK) compared to when metformin was used” value [2]?
Its value is “approximately 40%”.

What about the “production of lactic acid” value [3] of the same compound?
The value was “equal to or less than that by metformin”.

And the “fasting blood glucose levels” value ([4]; 12-hour fasting)?
Its value is “had the effect of lowering”.

What about the “random blood glucose levels” value [4] of the same compound?
Its value is “had the effect of lowering”.
